Laboratory results from PubChem BioAssay (NCI).
Several values for one entry are separate records, joined by “and”; a condition that tells them apart may be missing. Identical values can stand only once.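 These data come from cells grown in 96-well plates and exposed to compound for 48 hours at five concentrations. GI50 is the concentration that inhibits growth by half. TGI denotes the concentration required for complete inhibition of growth.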

Tests used:
Experiment in all cases: NCI-60 cell line screen, 48 h
[1] = system: SR leukemia
[2] = system: UACC-257 melanoma
[3] = system: HCT-15 colon
[4] = system: PC-3 prostate
[5] = system: SK-MEL-5 melanoma
[6] = system: SW-620 colon
[7] = system: ACHN renal
[8] = system: DU-145 prostate
[9] = system: A498 renal
[10] = system: KM12 colon

SMILES	GI50 [1] [µM]	TGI [1] [µM]	GI50 [2] [µM]	TGI [2]	GI50 [3] [µM]	TGI [3] [µM]	GI50 [4] [µM]	TGI [4] [µM]	GI50 [5]	TGI [5]	GI50 [6] [µM]	TGI [6] [µM]	GI50 [7] [µM]	TGI [7]	GI50 [8] [µM]	TGI [8] [µM]	GI50 [9] [µM]	TGI [9]	GI50 [10] [µM]	TGI [10]
Nc1nc2cc(CC[C@H]3C[C@@H](n4ccc5c(N)ncnc54)[C@H](O)[C@@H]3O)ccc2cc1Br	18.7	> 100	3.68	19 µM	11.3	25.6	11	25.9	0.579 µM	2.98 µM	13.3	27.7	12.3	28.5 µM	13.1	27	2.38	18.9 µM	11	25.9 µM
COc1ccc(/C(C#N)=C/c2cc(OC)c(OC)c(OC)c2)cc1	3.36	41.5	31	> 100 µM	7.96	> 100	15.6	67.9	10.7 µM	28.7 µM	13.6	> 100	23.5	> 100 µM	40.1	> 100	22.7	> 100 µM	12.7	> 100 µM
COC(=O)c1c2c(c(C)[n+]([O-])c1C)C(=O)C=C(NCc1cccc(Cl)c1)C2=O	0.35	6.64	0.234	0.725 µM	0.205	1.52	0.257	2.6	0.167 µM	0.316 µM	0.244	1.23	0.661	2.04 µM	0.821	2.18	1.21	2.46 µM	0.2	1.69 µM
O=c1oc2cc(OC/C(=N/O)c3ccc(F)cc3)ccc2c2ccccc12	26.6	69.2	22.9	39.4 µM	20.7	42.4	22.1	49.1	20.9 µM	36.3 µM	23.2	44.6	20.4	41.6 µM	18.5	34.7	22	37.7 µM	21.2	53.5 µM
NC(N)=NC(N)=NCCCc1ccco1	19.6	89.8	19.2	101 µM	> 500	> 500	> 500	> 500	> 500 µM	> 500 µM	18.2	125	> 500	> 500 µM	140	> 500	> 500	> 500 µM	109	> 500 µM
CCC1(OC(=O)CN)C(=O)OCc2c1cc1n(c2=O)Cc2cc3ccccc3nc2-1 (centres undefined)	–	< 0.0347	0.0859	0.721 µM and 0.545 µM	0.192	> 20.3	0.172	> 100	0.0187 µM and < 0.0128 µM	0.107 µM and 0.0329 µM	0.0448	> 100	0.00476	0.183 µM and 0.0628 µM	0.00536	0.551	0.0129	0.159 µM and 0.559 µM	0.022	0.754 µM and 4.01 µM
